Source: US4022900A, “Compositions containing 1,2,3,4-tetrahydroisoquinolines used as hypotensive agents” (Marion Laboratories, Inc., priority 1972, dated 1977)

Columns and labels:
[1] = test system: systolic blood pressure of deoxycorticosterone acetate hypertensive rats; test: Hypotensive activity in DCA/saline hypertensive rats (systolic blood pressure, tail cuff); type: in vivo, rat (male, CD strain); details: for Lowering of Blood Pressure in Hypertensive rate in mm's of Hg., 1 hr. / Lowering of Blood Pressure in Hypertensive rate in mm's of Hg., 2 hrs. / Lowering of Blood Pressure in Hypertensive rate in mm's of Hg., 4 hrs. / Lowering of Blood Pressure in Hypertensive rate in mm's of Hg., 24 hrs. / compounds which appear most active from Table I: 50 mg/kg intraperitoneal; for Lowering of Blood Pressure in Hypertensive rate in mm's of Hg., 1 hr. / Lowering of Blood Pressure in Hypertensive rate in mm's of Hg., 2 hrs. / Lowering of Blood Pressure in Hypertensive rate in mm's of Hg., 4 hrs. / Lowering of Blood Pressure in Hypertensive rate in mm's of Hg., 24 hrs.: change vs predrug control, six rats; for compounds which appear most active from Table I: qualitative ranking; for Percent Change in Pressure from Control ± S.E., 1 Hour / Percent Change in Pressure from Control ± S.E., 2 Hours / Percent Change in Pressure from Control ± S.E., 4 Hours / Percent Change in Pressure from Control ± S.E., 24 Hours: 50 mg/kg i.p., systolic pressure, * <0.05 significance (Newman-Keuls)
Method: Hypertension was produced in weanling (30-day old) male rats of the CD strain obtained from the Charles River Breeding Laboratories (Wilmington, Mass.) by subcutaneously implanting about the dorsal surface of the neck a pellet of deoxycorticosterone acetate (DCA) containing 10 mg DCA in a mixture of Carbowax 4000 (Union Carbide) and Flexowax C light (Glyco Products). Their drinking water was replaced by a 1% sodium chloride solution, a procedure known to facilitate the development of an experimental hypertension, and they had free access to chow. Systolic blood pressure in the caudal arteries was measured indirectly by a pneumatic pulse transducer and a tail pressure cuff on a Physiograph Four recorder (Narco Bio-Systems, Inc., Houston, Texas) in unanesthetized but restrained rats prewarmed to 40° C., 10-15 minutes prior to the determination. The rats were kept at a temperature of 40° C. for all determinations of systolic pressure in an attempt to minimize variations in blood pressure due to marked changes in arterial tone caused by changes in temperature. Blood pressures were measured at intervals in the DCA-treated rats given saline and in non-treated control rats. After 20 days, the mean systolic pressure in the DCA-treated rats was above 150 mm Hg. Hypertension was regarded as being established in the rats at this stage and they were at intervals, usually beginning with the 30th day after DCA-implant in testing for hypotensive activity. Following a series of control blood pressure readings, a dose of 50 mg/kg of the compound under investigation was administered by intraperitoneal injection either in solution or as a suspension in 1% tragacanth solution to groups of six hypertensive rats. Blood pressures were redetermined at 1, 2, 4 and 24 hour periods following injection. At each interval, the systolic pressure was measured a minimum of five times in each rat and the average value was calculated. Mean values for the group were calculated from the individual average values and compared with their predrug control levels. The statistical significance of the changes produced by the compounds, in the doses employed, was tested by the "t" test as well as by an analysis of variance. The reductions in blood pressure obtained with the indicated representative tetrahydroisoquinoline compounds are shown in Table I. The code number for the compound and the example herein showing its preparation are both given in Table I.
(§1) Additional compounds have been tested. The toxicity data for the additional compounds tested, and their identity, is given in the following Table II while the blood pressure lowering activity of the compounds is given in the following Table III. The heading "Example Number" in the tables refers to the working example herein which discloses the compounds and its preparation. The test procedure used for determining the blood pressure lowering activity of the compounds is the same as that previously set forth herein. However, the figures in Table III are expressed as percentage change in blood pressure, rather than in mm of mercury change in blood pressure, as presented in Table I herein.

[2] = Acute toxicity (LD50) in the mouse; details: in vivo; for LD50: Table I, unit, species and route not given; for LD50 at 24 h: ip, solubilized with the aid of dilute acid, read-out: Approximate Acute Toxicity (24 hrs.) In the Mouse, LD50
Method: 5-(3,4,5-trimethoxybenzamido)-2-methyl-1,2,3,4-tetrahydroisoquinoline (M-20) in mice has an LD-50 of about 125 to 250 mg/kg intraperitoneally.
as §1
Approximate Acute Toxicity (24 hrs.)
(a) Suspension in 1% tragacanth
(b) Solution in distilled water
(c) Solubilized with the aid of dilute acid

Structure (SMILES): CN1CCc2c(cccc2NC(=O)c2ccccc2Cl)C1 [M-63, 5-(2-Chlorobenzamido)-2-methyl-1,2,3,4-tetrahydroisoquinoline]
- Lowering of Blood Pressure in Hypertensive rate in mm's of Hg., 1 hr. [1]: -25±2 mm's of Hg
- Lowering of Blood Pressure in Hypertensive rate in mm's of Hg., 2 hrs. [1]: -36±4 mm's of Hg
- Lowering of Blood Pressure in Hypertensive rate in mm's of Hg., 4 hrs. [1]: -34±4 mm's of Hg
- Lowering of Blood Pressure in Hypertensive rate in mm's of Hg., 24 hrs. [1]: -28±4 mm's of Hg
- compounds which appear most active from Table I [1]: most active
- LD50 [2]: 125 to 188 mg/kg

Structure (SMILES): CCCN1CCc2c(cccc2NC(=O)c2ccc(OC)cc2)C1 [M-50, 5-(4-methoxybenzamido)-2-n-propyl-1,2,3,4-tetrahydroisoquinoline]
- Percent Change in Pressure from Control ± S.E., 1 Hour [1]: -11.3 ± 1.9%
- Percent Change in Pressure from Control ± S.E., 2 Hours [1]: -17.8 ± 1.4%
- Percent Change in Pressure from Control ± S.E., 4 Hours [1]: -10.2 ± 2.8%
- Percent Change in Pressure from Control ± S.E., 24 Hours [1]: -6.2%
- LD50 at 24 h [2]: 125 to 250 mg/kg

Structure (SMILES): COc1cc(OC)c(C(=O)Nc2cccc3c2CCN(C)C3)cc1OC [M-61, 5-(2,4,5-Trimethoxybenzamido)-2-methyl-1,2,3,4-tetrahydroisoquinoline]
- Lowering of Blood Pressure in Hypertensive rate in mm's of Hg., 1 hr. [1]: -15±4 mm's of Hg
- Lowering of Blood Pressure in Hypertensive rate in mm's of Hg., 2 hrs. [1]: -19±5 mm's of Hg
- Lowering of Blood Pressure in Hypertensive rate in mm's of Hg., 4 hrs. [1]: -15±4 mm's of Hg
- Lowering of Blood Pressure in Hypertensive rate in mm's of Hg., 24 hrs. [1]: -6±6 mm's of Hg
- LD50 [2]: 68 to 125 mg/kg

Structure (SMILES): COc1cccc(OC)c1C(=O)Nc1cccc2c1CCN(C)C2 [M-57, 5-(2,6-Dimethoxybenzamido)-2-methyl-1,2,3,4-tetrahydroisoquinoline]
- Lowering of Blood Pressure in Hypertensive rate in mm's of Hg., 1 hr. [1]: -2±8 mm's of Hg
- Lowering of Blood Pressure in Hypertensive rate in mm's of Hg., 2 hrs. [1]: -7±5 mm's of Hg
- Lowering of Blood Pressure in Hypertensive rate in mm's of Hg., 4 hrs. [1]: -14±10 mm's of Hg
- Lowering of Blood Pressure in Hypertensive rate in mm's of Hg., 24 hrs. [1]: -14±10 mm's of Hg
- LD50 [2]: 250 to 500 mg/kg

Structure (SMILES): CN1CCc2c(cccc2NC(=O)c2ccccc2Br)C1 [M-60, 5-(2-Bromobenzamido)-2-methyl-1,2,3,4-tetrahydroisoquinoline]
- Lowering of Blood Pressure in Hypertensive rate in mm's of Hg., 1 hr. [1]: -12±4 mm's of Hg
- Lowering of Blood Pressure in Hypertensive rate in mm's of Hg., 2 hrs. [1]: -10±8 mm's of Hg
- Lowering of Blood Pressure in Hypertensive rate in mm's of Hg., 4 hrs. [1]: -20±3 mm's of Hg
- Lowering of Blood Pressure in Hypertensive rate in mm's of Hg., 24 hrs. [1]: -26±4 mm's of Hg
- LD50 [2]: 125 to 250 mg/kg

Structure (SMILES): COc1ccc(C(=O)Nc2cccc3c2CCN(C)C3)cc1 [M-56, 5-(4-Methoxybenzamido)-2-methyl-1,2,3,4-tetrahydroisoquinoline]
- Lowering of Blood Pressure in Hypertensive rate in mm's of Hg., 1 hr. [1]: -14±5 mm's of Hg
- Lowering of Blood Pressure in Hypertensive rate in mm's of Hg., 2 hrs. [1]: -30±8 mm's of Hg
- Lowering of Blood Pressure in Hypertensive rate in mm's of Hg., 4 hrs. [1]: -19±6 mm's of Hg
- Lowering of Blood Pressure in Hypertensive rate in mm's of Hg., 24 hrs. [1]: -18±4 mm's of Hg
- LD50 [2]: 62 to 125 mg/kg

Structure (SMILES): CCCN1CCc2c(cccc2NC(=O)c2cc(OC)c(OC)c(OC)c2)C1 [M-49, 5-(3,4,5-Trimethoxybenzamido)-2-n-propyl-1,2,3,4-tetrahydroisoquinoline]
- Lowering of Blood Pressure in Hypertensive rate in mm's of Hg., 1 hr. [1]: -31±6 mm's of Hg
- Lowering of Blood Pressure in Hypertensive rate in mm's of Hg., 2 hrs. [1]: -27±6 mm's of Hg
- Lowering of Blood Pressure in Hypertensive rate in mm's of Hg., 4 hrs. [1]: -21±6 mm's of Hg
- Lowering of Blood Pressure in Hypertensive rate in mm's of Hg., 24 hrs. [1]: -17±6 mm's of Hg
- compounds which appear most active from Table I [1]: most active
- LD50 [2]: 125 to 250 mg/kg

Structure (SMILES): CCc1cccc(CC)c1C(=O)Nc1cccc2c1CCN(C)C2 [M-66, 5-(2,6-Diethylbenzamido)-2-methyl-1,2,3,4-tetrahydroisoquinoline]
- Percent Change in Pressure from Control ± S.E., 1 Hour [1]: -5.7 ± 3.0%
- Percent Change in Pressure from Control ± S.E., 2 Hours [1]: -7.5 ± 4.6%
- Percent Change in Pressure from Control ± S.E., 4 Hours [1]: -6.1 ± 2.8%
- Percent Change in Pressure from Control ± S.E., 24 Hours [1]: -2.1 ± 2.3%
- LD50 at 24 h [2]: 125 to 250 mg/kg
